Where two headings read alike, the source gives them in different places.
Assays:
[1] = system: CYPES; type: in vivo, Cyperus esculentus
Protocol: Seeds or nutlets of the desired test plant species were planted in a soil matrix prepared by mixing a loam or sandy loam soil (e.g., 28.6 percent silt, 18.8 percent clay, and 52.6 percent sand, with a pH of about 5.8 and an organic matter content of about 1.8 percent) and calcareous grit in an 80 to 20 ratio. The soil matrix was contained in plastic pots with a volume of 1 quart and a surface area of 83.6 square centimeters (cm^2). […] The plants were grown for 8-22 days in a greenhouse with an approximate 14 hour (h) photoperiod which was maintained at about 29° C. during the day and 26° C. during the night. Nutrients (Peters Excel® 15-5-15 5-Ca 2-Mg and iron chelate) were applied in the irrigation solution as needed and water was added on a regular basis. Supplemental lighting was provided with overhead metal halide 1000-Watt lamps as necessary. The plants were employed for testing when they reached the first through fourth true leaf stage.
(§1) Treatments consisted of the acid or esters of 4-amino-3-chloro-6-(4-chloro-2-fluoro-3-methoxyphenyl)-5-fluoropyridine-2-carboxylic acid (Compound A), each formulated as an SC (suspension concentrate), and various insecticidal components alone and in combination. Forms of compound A were applied on an acid equivalent basis.
(§2) For treatments comprised of formulated compounds, measured amounts of compounds were placed individually in 25 mL glass vials and diluted in a volume of 1.25% volume per volume (v/v) Agri-Dex® crop oil concentrate to obtain 12× stock solutions. […] Application solutions were prepared by adding an appropriate amount of each stock solution (e.g., 1 mL) and diluted to the appropriate final concentrations with the addition of […] of an aqueous mixture of 1.25% (v/v) crop oil concentrate so that the final spray solutions contained 1.25+/−0.05% (v/v) crop oil concentrate.
(§3) As required, additional water and/or 97:3 v/v acetone/DMSO was added to individual application solutions so that the final acetone and DMSO concentrations of the application solutions being compared were 8.1% and 0.25%, respectively.
(§4) All stock solutions and applications solutions were visually inspected for compound compatibility prior to application. Spray solutions were applied to the plant material with an overhead Mandel track sprayer equipped with 8002E nozzles calibrated to deliver 187 L/ha over an application area of 0.503 square meters (m^2) at a spray height of 18 to 20 inches (46 to 50 cm) above average plant canopy height. Control plants were sprayed in the same manner with the solvent blank.
(§5) The treated plants and control plants were placed in a greenhouse as described above and watered by sub-irrigation to prevent wash-off of the test compounds. After approximately 3 weeks, the condition of the test plants as compared to that of the untreated plants was determined visually and scored on a scale of 0 to 100 percent where 0 corresponds to no injury or growth inhibition and 100 corresponds to complete kill.
(§6) Colby's equation was used to determine the herbicidal effects expected from the mixtures (Colby, S. R. Calculation of the synergistic and antagonistic response of herbicide combinations. Weeds 1967, 15, 20-22.).
(§7) The following equation was used to calculate the expected activity of mixtures containing two active ingredients, A and B: Expected=A+B−(A×B/100)

[2] = system: LEFFA; assay: Postemergence foliar-applied weed control, direct-seeded rice (greenhouse); type: in vivo, Leptochloa fascicularis
From the text: (§8) Seeds or nutlets of the desired test plant species were planted in a soil matrix prepared by mixing a loam or sandy loam soil (e.g., 28.6 percent silt, 18.8 percent clay, and 52.6 percent sand, with a pH of about 5.8 and an organic matter content of about 1.8 percent) and calcareous grit in an 80 to 20 ratio. The soil matrix was contained in plastic pots with a volume of 1 quart and a surface area of 83.6 square centimeters (cm^2). When required to ensure good germination and healthy plants, a fungicide treatment and/or other chemical or physical treatment was applied. The plants were grown for 8-22 days in a greenhouse with an approximate 14 hour (h) photoperiod which was maintained at about 29° C. during the day and 26° C. during the night. Nutrients (Peters Excel® 15-5-15 5-Ca 2-Mg and iron chelate) were applied in the irrigation solution as needed and water was added on a regular basis. Supplemental lighting was provided with overhead metal halide 1000-Watt lamps as necessary. The plants were employed for testing when they reached the first through fourth true leaf stage.
as §1
(§9) Treatment requirements were calculated based upon the rates being tested, the concentration of active ingredient or acid equivalent in the formulation, and a 12 milliliter (mL) application volume at a rate of 187 liters per hectare (L/ha).
as §2, §3, §4, §5, §6, §7

[3] = system: LEFPA; assay: as above; type: in vivo, Leptochloa panicoides
From the text: as §8, §1, §9, §2, §3, §4, §5, §6, §7

SMILES: COc1c(Cl)ccc(-c2nc(C(=O)OCc3ccccc3)c(Cl)c(N)c2F)c1F [Compound A Benzyl Ester]
- Visual Weed Control (%) - 20 DAA CYPES Obs ([1]; 8 g ae/ha alone): 25%
- Visual Weed Control (%) - 22 DAA CYPES Obs ([1]; 8 g ae/ha alone): 70%
- Visual Weed Control (%) - 20 DAA CYPES Obs ([1]; 16 g ae/ha alone): 40%
- Visual Weed Control (%) - 22 DAA CYPES Obs ([1]; 16 g ae/ha alone): 95%
- Visual Weed Control (%) - 22 DAA CYPES Obs ([1]; 22 DAA, 8 g ae/ha alone): 70%
- Visual Weed Control (%) - 20 DAA CYPES Obs ([1]; 32 g ae/ha alone): 73%
- Visual Weed Control (%) - 22 DAA LEFFA Obs ([2]; 8 g ae/ha alone): 23%
- Visual Weed Control (%) - 22 DAA LEFFA Obs ([2]; 16 g ae/ha alone): 30%
- Visual Weed Control (%) - 22 DAA LEFFA Obs ([2]; 22 DAA, 8 g ae/ha alone): 23%
- Visual Weed Control (%) - 22 DAA LEFFA Obs ([2]; 22 DAA, 16 g ae/ha alone): 30%
- Visual Weed Control (%) - 22 DAA LEFFA Obs ([2]; 22 DAA, 32 g ae/ha alone): 45%
- Visual Weed Control (%) - 22 DAA LEFFA Obs ([2]; 32 g ae/ha alone): 45%
- Visual Weed Control (%) - 22 DAA LEFPA Obs ([3]; 8 g ae/ha alone): 5%
- Visual Weed Control (%) - 22 DAA LEFPA Obs ([3]; 16 g ae/ha alone): 0%
- Visual Weed Control (%) - 22 DAA LEFPA Obs ([3]; 32 g ae/ha alone): 38%
